Assay results from patent publication US20150269307A1, “TARGET INHIBITION MAP SYSTEM FOR COMBINATION THERAPY DESIGN AND METHODS OF USING SAME” (Texas Tech University System, priority 2014, published 2015).

Assays:
[1] = test system: human patient-derived xenografts; assay: Xenograft-derived chemical screen (Supplemental Table 3); type: cell-based; conditions: 60 agent PPTI screen
Description: Three chemical screens were applied to the U23674 primary tumor cell culture. […] The target inhibition profile is a quantified description of the inhibitory properties of the compound on the numerous protein targets preset on the PPTI screen.
To screen the chemical agents, cell cultures were plated in 384 well plates at a seeding density of 2000 cells per well over graded concentrations of the numerous compounds. The chemical concentrations were between 10 nM and […] depending on the activity range of the compounds. The cells were incubated in DMEM supplemented with 1% penicillin streptomycin, and 10% fetal bovine serum for 72 hours. Chemical sensitivity was determined by an MTS cell viability assay after the 72 hour incubation period. The sensitivity responses at the different concentrations were used to determine the chemical IC50 using a hill curve fitting algorithm with variable hill slope coefficients.

IGF-1R = target: T1, IGF-1R (Mus musculus, UniProt Q60751); assay: Western blot analysis of phospho-IGF-1R after IGF-1 stimulation; type: cell-based; conditions: 4 hours of drug exposure at 1 μM and higher
T1 construct: endogenous in cells; host or cells: murine DIPG neurospheres (Ntv-a p53 deficient, PDGF-B driven)
T1 sequence (Q60751 31-1373): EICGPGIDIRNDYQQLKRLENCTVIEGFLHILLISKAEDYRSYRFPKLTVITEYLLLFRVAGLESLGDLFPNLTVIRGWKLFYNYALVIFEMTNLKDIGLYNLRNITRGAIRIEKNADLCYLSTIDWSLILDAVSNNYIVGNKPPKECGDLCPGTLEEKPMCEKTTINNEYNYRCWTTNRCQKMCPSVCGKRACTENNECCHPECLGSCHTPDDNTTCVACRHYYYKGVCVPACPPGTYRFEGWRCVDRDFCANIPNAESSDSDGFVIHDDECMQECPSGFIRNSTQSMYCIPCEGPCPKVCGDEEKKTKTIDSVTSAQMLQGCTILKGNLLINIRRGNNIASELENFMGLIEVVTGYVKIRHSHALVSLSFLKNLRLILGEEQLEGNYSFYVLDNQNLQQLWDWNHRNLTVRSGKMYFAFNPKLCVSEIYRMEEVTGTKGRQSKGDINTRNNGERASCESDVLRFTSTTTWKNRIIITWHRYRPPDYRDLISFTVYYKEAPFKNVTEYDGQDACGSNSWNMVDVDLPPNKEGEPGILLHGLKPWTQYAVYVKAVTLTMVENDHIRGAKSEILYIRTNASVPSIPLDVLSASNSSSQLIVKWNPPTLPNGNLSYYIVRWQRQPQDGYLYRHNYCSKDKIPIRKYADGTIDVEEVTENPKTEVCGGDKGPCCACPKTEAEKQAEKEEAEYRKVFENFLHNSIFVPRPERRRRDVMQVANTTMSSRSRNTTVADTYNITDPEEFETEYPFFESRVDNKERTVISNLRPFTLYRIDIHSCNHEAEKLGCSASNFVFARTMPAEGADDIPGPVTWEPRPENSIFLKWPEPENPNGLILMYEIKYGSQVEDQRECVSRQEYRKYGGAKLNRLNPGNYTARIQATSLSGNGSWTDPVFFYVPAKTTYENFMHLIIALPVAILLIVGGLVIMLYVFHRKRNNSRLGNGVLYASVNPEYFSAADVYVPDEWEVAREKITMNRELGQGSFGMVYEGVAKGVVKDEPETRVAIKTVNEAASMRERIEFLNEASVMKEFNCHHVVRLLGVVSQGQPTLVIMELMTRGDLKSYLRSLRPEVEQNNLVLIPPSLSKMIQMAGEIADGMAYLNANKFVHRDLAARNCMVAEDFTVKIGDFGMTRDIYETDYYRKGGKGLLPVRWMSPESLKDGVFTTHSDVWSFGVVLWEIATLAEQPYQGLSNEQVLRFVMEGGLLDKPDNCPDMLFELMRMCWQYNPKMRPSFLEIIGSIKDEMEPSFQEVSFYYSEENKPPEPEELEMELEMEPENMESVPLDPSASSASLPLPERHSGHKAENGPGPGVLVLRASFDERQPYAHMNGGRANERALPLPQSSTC
Description: (§1) IGF-1R ligand was added at 10 nmol/L concentration for 15 minutes prior to cell collection. […] Protein concentrations of total cell lysates or total tissue lysates were determined using BCA assay kit (Pierce). Lysates were resolved by SDS-PAGE (Invitrogen) and transferred to nitrocellulose membranes (Bio-Rad Laboratories). […] All antibodies were purchased from Cell Signaling except Actin, which was purchased from Santa Cruz Biotech. Membranes were incubated with the appropriate labeled secondary antibodies, and protein was visualized and quantified using Li-Cor Biosciences Odyssey Infrared Imaging system (Li-Cor Biosciences). Inhibition was calculated by comparing the ratio of phosphorylation signals in untreated versus treated samples after normalization to actin. All values are given as mean+/−SD of at least 3 independent experiments.

DIPG neurospheres [2] = assay: Cellular viability assay (CellTiter-Glo Luminescent Cell Viability Assay); type: cell-based, mouse; conditions: 48 hours
Description: (§2) A bromodeoxyuridine (BrdU) based cell proliferation ELISA assay kit (Roche) was used for proliferation and processed according to the manufacturer's protocol. […] Viability was measured with CellTiter-Glo Luminescent Cell Viability Assay (# G7572, Promega) per manufacturer's protocol, luminescence values were obtained using Turner Biosystems Modulus Microplate luminometer (model 9300-062). All values are given as mean+/−SD of at least 3 independent experiments.

U23674 cells = assay: Four-arm orthotropic allograft study, survival; type: in vivo, mouse; conditions: 50 mg/kg OSI-906, 150 mg/kg GDC-0941, oral gavage; compared to vehicle and other arms
Description: This engraftment was performed after damaging the right leg via cardiotoxin as previously described. Treatment commenced two days after engraftment. Dosing schedule was once daily by oral gavage up to day 5, at which time dosing was performed every other day. The endpoint for the study and survival analysis was tumor volume=1.4 cc.

AKT = assay: Western blot analysis of phospho-Akt after IGF-1 stimulation; type: cell-based, mouse; conditions: 4 hours of drug exposure at 1 μM and higher
Description: as §1

DIPG neurospheres [3] = assay: BrdU based cell proliferation ELISA assay; parameters: species or system mouse
Description: as §2

DIPG neurospheres [4] = assay: cells
Description: Primary cultures of DIPG neurospheres were added to 384 well plates pre-plated with 60 known drugs in an increasing gradient of concentrations. […] To complete this drug screen, primary cultures of nestin […] 53 deficient DIPG neurospheres were added to plates with 60 known drug samples in an increasing gradient of concentrations.

## C[C@]1(O)C[C@@H](c2nc(-c3ccc4ccc(-c5ccccc5)nc4c3)c3c(N)nccn32)C1 [OSI-906]
[1]
  IC50 Value: >conc tested
IGF-1R
  reduction in pIGF-1R: 73%
DIPG neurospheres [2]
  concentration giving significant reduction of viability: ≥ 1 µM
DIPG neurospheres [2]; Mus musculus, CellTiter-Glo, read-out: IC50, viability / cytotoxic effects
  IC50: 2400 nM
U23674 cells
  survival of mice (endpoint tumor volume 1.4 cc): no better than survival of mice only treated with vehicle
AKT
  reduction in pAKT expression: 69%
DIPG neurospheres [3]
  concentration giving significant inhibition of proliferation: ≥ 1 µM
DIPG neurospheres [3]; Mus musculus, 48 hours, BrdU assay
  IC50: 2500 nM
DIPG neurospheres [4]; 48 h, read-out: In Vitro Absolute IC50
  IC50: 1740 nM
DIPG neurospheres [4]; read-out: cell viability (cytocidal)
  viability at 10 µM: < 15%
